Assay [1] deals with T1, cloned human m2 muscarinic receptor (Homo sapiens, UniProt P08172).
T1 sequence (P08172 1-466): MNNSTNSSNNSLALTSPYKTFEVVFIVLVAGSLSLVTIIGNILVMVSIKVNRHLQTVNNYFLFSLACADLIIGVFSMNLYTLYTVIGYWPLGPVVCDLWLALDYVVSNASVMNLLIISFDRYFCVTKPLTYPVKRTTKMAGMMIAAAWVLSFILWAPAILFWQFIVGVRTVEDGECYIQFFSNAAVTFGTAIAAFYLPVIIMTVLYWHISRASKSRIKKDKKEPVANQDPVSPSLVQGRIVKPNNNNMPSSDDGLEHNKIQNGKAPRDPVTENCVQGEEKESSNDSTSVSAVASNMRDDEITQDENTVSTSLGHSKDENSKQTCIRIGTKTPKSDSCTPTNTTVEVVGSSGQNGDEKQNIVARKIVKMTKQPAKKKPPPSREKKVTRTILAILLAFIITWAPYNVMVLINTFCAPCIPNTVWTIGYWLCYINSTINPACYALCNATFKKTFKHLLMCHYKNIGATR
As to the kind of experiment: Binding to cloned human m2 muscarinic receptor (3H-QNB, CHO cell membranes). Conditions: affinity for the m2 receptor; 3H-QNB displacement.

For another assay, the target named is T2, H3 receptor (Cavia porcellus, UniProt Q9JI35).
T2 construct: from tissue; host or cells: guinea pig brain membranes
T2 sequence (Q9JI35 whole entry): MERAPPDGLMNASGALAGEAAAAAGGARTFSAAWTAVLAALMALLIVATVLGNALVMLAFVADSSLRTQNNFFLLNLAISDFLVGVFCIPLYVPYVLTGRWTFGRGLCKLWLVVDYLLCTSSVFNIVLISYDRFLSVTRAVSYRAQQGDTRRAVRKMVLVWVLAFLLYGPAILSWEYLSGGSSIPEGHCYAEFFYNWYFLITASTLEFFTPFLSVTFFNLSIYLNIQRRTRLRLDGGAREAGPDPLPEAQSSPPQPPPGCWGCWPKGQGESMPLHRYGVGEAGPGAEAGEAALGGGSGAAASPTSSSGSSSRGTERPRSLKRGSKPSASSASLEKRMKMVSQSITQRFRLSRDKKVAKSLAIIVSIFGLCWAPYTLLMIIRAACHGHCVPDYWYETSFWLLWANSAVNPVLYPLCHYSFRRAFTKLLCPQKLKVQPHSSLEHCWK
Put plainly: H3 receptor binding, displacement of radiolabeled Nα-methylhistamine from guinea pig brain membranes. The settings on record: affinity for the H3 receptor. An excerpt:
Compounds can readily be evaluated to determine activity at H3 receptors by known methods, including the guinea pig brain membrane assay and the guinea pig neurogenic ileum contraction assay, both of which are described in U.S. Pat. No. 5,352,707. Another useful assay utilizes rat brain membranes and is described by West et al., “Identification of Two H3-Histamine Receptor Subtypes,” Molecular Pharmacology, Vol. 38, pages 610-613 (1990).
A particularly useful screening assay measures binding to sites in guinea pig brain membranes. This test is described in detail by Korte et al., “Characterization and Tissue Distribution of H3 Histamine Receptors in Guinea Pigs by N^α-Methylhistamine,” in Biochemical and Biophysical Research Communications, Vol. 168, pages 979-986 (1990), and quantifies the displacement of bound radiolabeled N^α-methylhistamine from tissues by candidate compounds. Results are expressed as “Ki” values, in nanoMolar (nM) units, which values can be considered as being dissociation constants for the H3 antagonist on the H3 receptor system, or an index of antagonist affinity for the receptor. In general, Ki values less than about 200 nM are considered necessary for an agent to be useful as an H3 antagonist in the invention.

15 compounds from patent US6906081B2, “Use of dual H3/M2 antagonists in the treatment of cognition deficit disorders” (Schering Corporation, priority 2001, dated 2005) can be followed below.

Each structure is given as a SMILES string.

As for `CCN(CC)CCOc1ccc(CN2CCC(C3CCN(Cc4ccc(C(=O)NC(C)C)cc4)CC3)CC2)cc1` [Compound 1], the Ki – broadly, the equilibrium dissociation constant of an inhibitor or competing ligand from its target – came out at 0.17 nM in assay [1] and 18 nM at H3 receptor.

With `CCCS(=O)(=O)N1CCC(N2CCC(C3(c4ccc(S(=O)(=O)c5ccc6c(c5)OCO6)cc4)OCCO3)CC2)CC1` [Compound 2], the inhibitory constant (Ki) was 0.01 nM in assay [1] and 140 nM at H3 receptor.

On to `O=C(NCC1CC1)c1ccc(CN2CCC(C3CCN(Cc4ccc(C(=O)NCC5CC5)cc4)CC3)CC2)cc1` [Compound 3], for which the figures for the inhibition constant Ki (in assay [1]; at H3 receptor) were 0.125 nM and 500 nM, respectively.

As to `c1ccc(CN2CCC(C3CCN(Cc4ccccc4)CC3)CC2)cc1` [Compound 4], the Ki came out at 3.4 nM in assay [1] and 620 nM on H3 receptor.

For the compound `CC(C)(C)OC(=O)N1CCC(C2CCN(Cc3ccc(S(=O)(=O)c4ccc5c(c4)OCO5)cc3)CC2)CC1` [Compound 5], the figures for the Ki (in assay [1]; on H3 receptor) were 2.6 nM and 430 nM, respectively.

As for `Cc1ccccc1C(=O)N1CCC(C2CCN(Cc3ccc(S(=O)(=O)c4ccc5c(c4)OCO5)cc3)CC2)CC1` [Compound 6], the inhibition constant (Ki) in assay [1] was found to be 1.2 nM; at H3 receptor it was 160 nM.

Turning to `CCN(CC)CCOc1ccc(CN2CCC(C3CCN(Cc4ccc(S(=O)(=O)c5ccc6c(c5)OCO6)cc4)CC3)CC2)cc1` [Compound 7], the Ki in assay [1] came to 0.07 nM; at H3 receptor, 22 nM.

Turning to `CN(C)CCCOc1ccc(CN2CCC(C3CCN(Cc4ccc(S(=O)(=O)c5ccc6c(c5)OCO6)cc4)CC3)CC2)cc1` [Compound 8], the values for the inhibitory constant (Ki) (in assay [1]; at H3 receptor) were 0.05 nM and 6 nM, respectively.

As for `O=C(NCC1CC1)c1ccc(CN2CCC(C3CCN(Cc4ccc(S(=O)(=O)c5ccc6c(c5)OCO6)cc4)CC3)CC2)cc1` [Compound 9], the inhibitory constant (Ki) came to 0.22 nM in assay [1] and 290 nM on H3 receptor.

Turning to `CN(C)CCCOc1ccc(CN2CCC(N3CCC(C(=O)c4ccc(S(=O)(=O)c5ccc6c(c5)OCO6)cc4)CC3)CC2)cc1` [Compound 10], the Ki in assay [1] is 0.019 nM; on H3 receptor, 15 nM.

`CCN(CC)CCOc1ccc(CN2CCC(N3CCC(C(=O)c4ccc(S(=O)(=O)c5ccc6c(c5)OCO6)cc4)CC3)CC2)cc1` [Compound 11]: the inhibitory constant (Ki) in assay [1] worked out at 0.018 nM; on H3 receptor, 8 nM.

For `CCCCOc1ccc(CN2CCC(N3CCC(C(=O)c4ccc(S(=O)(=O)c5ccc6c(c5)OCO6)cc4)CC3)CC2)cc1` [Compound 12], the Ki in assay [1] came to 4.8 nM; on H3 receptor, 170 nM.

Turning to `CN(C)CCCOc1ccc(CN2CCC(N3CCC(C4(c5ccc(S(=O)(=O)c6ccc7c(c6)OCO7)cc5)OCCO4)CC3)CC2)cc1` [Compound 13], the Ki in assay [1] came to 0.8 nM; on H3 receptor, 12 nM.

As to `CCN(CC)CCOc1ccc(CN2CCC(N3CCC(C4(c5ccc(S(=O)(=O)c6ccc7c(c6)OCO7)cc5)OCCO4)CC3)CC2)cc1` [Compound 14], the Ki turned out to be 0.7 nM in assay [1] and 2 nM at H3 receptor.

Turning to `CCCCOc1ccc(CN2CCC(N3CCC(C4(c5ccc(S(=O)(=O)c6ccc7c(c6)OCO7)cc5)OCCO4)CC3)CC2)cc1` [Compound 15], the inhibitory constant (Ki) came to 0.17 nM in assay [1] and 43 nM at H3 receptor.
